Results: patent US8492578B2, “Compounds useful in therapeutic and cosmetic methods” (Photoderma SA, priority 2007, dated 2013)
Entries after “also recorded” stand apart in the source; their conditions may differ. Read-outs that look alike come from different tables or passages of the source.

Experiments:
stratum corneum = assay: PpIX fluorescence on intact skin vs skin with stratum corneum removed (permeability through stratum corneum); assay type: in vivo, human; details: for Fluoresence epidermis: Cold cream formulation, 3 hours after topical administration; for increase of fluorescence upon removal of the stratum corneum: SC removed vs intact skin
Protocol: Permeability of compounds of the invention through the stratum corneum is assessed by measurements of fluorescence of PpIX. The expression “PpIX”, for the purpose of the present specification, stands for PpIX as reported in the literature and other natural porphyrins producing a fluorescent signal following illumination with suitable light. Permeability of the compounds of the present invention is determined by comparing PpIX-induced fluorescence of compounds of the invention applied on the surface of intact skin with fluorescence induced by the same compounds applied on skin from which the stratum corneum has been removed.
The stratum corneum was removed by dry shaving with a razor blade (BIC Classic 1 lame). The lame is gently swept 8 times over the skin without using water, razor foam or any other lubricant.
Formulations comprising compounds of the invention and controls are administered topically on the forearm or the leg using the Tegaderm™ transparent dressing. This dressing enables the transport of water and oxygen according to the specifications of the manufacturer. This dressing was removed and the remaining formulation cleaned with water just before the measurements.
A fluorescence imaging system illustrated in FIG. IX of WO 03/041673 is used to assess the extent and level of PpIX production in “macroscopic” samples (parts of the human body such as: forearm, leg, back, etc.). The experimental equipment and descriptions, as well as the ALA-DGME compounds disclosed therein are expressly incorporated herein by reference. As the goal is to assess the relative level of PpIX, red light at 635 nm is chosen as PpIX fluorescence excitation wavelength. It is indeed well known that red light penetrates deeper in the cutaneous tissues than green and violet light, the later two wavelengths corresponding to larger PpIX absorption peaks (see the PpIX fluorescence excitation and emission spectra presented on the right side in FIG. IX of WO 03/041673).
As presented in the schematic diagram presented in FIG. IX of WO 03/041673, this fluorescence imaging system involves a modified 300 W D-light source 1 (Xe arc lamp from Storz, Tuttlingen, Germany) equipped with a red bandpass filter (635 nm, 20 nm FWHM; Chroma, USA). This fluorescence excitation light is coupled in a Storz 4 mm diameter light guide 2. The output of this light guide is imaged on the tissue sample 3 with a projection objective 4 (Nikon, Japan; A F Nikkor; 1:1.4 D/50 mm) to generate a homogenous spot of 2.5 cm in diameter with an irradiance of 2 mW/cm^2 at 635 nm. The distance between this projection objective 4 and the sample 3 is 25 cm. Therefore, the light beam illuminating the sample can be considered as parallel. The fluorescence is collected by another objective 5 (Fujinon, Japan; TV zoom lens; 1:1.2/12.5-75 mm; Type H6X12.5R-MD3) through a longpass filter 6 (Schott, Germany; RG665) and the image detected by a scientific CCD camera (752×582 pixels CF 8/1 Kappa, Gleichen, Germany) equipped 7 with an image intensifier (Proxifier BV 256-2FcZ-CH, Proxitronic, Bensheim, Germany). The images are captured by the 8-bits camera frame grabber and saved on the computer 8 with the “Kappa Imagebase-control” software. Image treatment is carried out using the IPLab imaging software. The spatial resolution of the complete setup has been measured with an USAF resolution target and the value we obtained in the sample plan is 3 lp/mm, the size of the image detected by the camera being 3×4 cm^2.
A reference sample is been designed to enable a comparison of the relative fluorescence brightness between samples investigated at different times. This reference consists of a ruby disk (diameter: 12 mm; thickness: 1.02 mm; Type 8Sp3, Hans Stettler S A, Lyss, Switzerland) covered with a neutral density filter (T=2.27%) so that the signal obtained with this reference sample corresponds to the typical tissue fluorescence detected in our conditions. The images are analyzed using the NIH image software. […]

hair follicles = assay: Fluorescence imaging of skin after hair removal (selectivity for hair follicle); assay type: in vivo, human; details: for distribution of fluorescence on skin: 20 wt. % formulation, applied after epilation
Protocol: FIGS. 1-10 are fluorescence images of human forearm or leg skin areas of 2.5 cm in diameter, the pictures being taken three hours after administration of different photosensitizer precursors under variable experimental conditions.
FIGS. 1A-B are fluorescence photographs of human skin to which compounds of the invention were applied. A formulation containing phenylalanin-ALA-amide (compound 1) at 80 wt. % was topically applied to the skin and pictures were taken 3 hours following administration. In FIG. 1A, skin was not pre-treated and fluorescence was measured with 20 milliseconds (ms) exposure time. In FIG. 1B, hair was mechanically removed by wax-epilation before administration of the formulation and fluorescence was measured with 10 milliseconds (ms) exposure time.
Formulations comprising compounds of the invention and controls are administered topically on the forearm or the leg using the Tegaderm™ transparent dressing. This dressing enables the transport of water and oxygen according to the specifications of the manufacturer. […]
A fluorescence imaging system illustrated in FIG. IX of WO 03/041673 is used to assess the extent and level of PpIX production in “macroscopic” samples (parts of the human body such as: forearm, leg, back, etc.). […] As the goal is to assess the relative level of PpIX, red light at 635 nm is chosen as PpIX fluorescence excitation wavelength. It is indeed well known that red light penetrates deeper in the cutaneous tissues than green and violet light, the later two wavelengths corresponding to larger PpIX absorption peaks (see the PpIX fluorescence excitation and emission spectra presented on the right side in FIG. IX of WO 03/041673).
As presented in the schematic diagram presented in FIG. IX of WO 03/041673, this fluorescence imaging system involves a modified 300 W D-light source 1 (Xe arc lamp from Storz, Tuttlingen, Germany) equipped with a red bandpass filter (635 nm, 20 nm FWHM; Chroma, USA). This fluorescence excitation light is coupled in a Storz 4 mm diameter light guide 2. […]

[1] = literature reports and Metvix package leaflet; cited from earlier work
Propionobacterium acnes = assay: Photodestruction of P. acnes immediately after PDT; assay type: in vivo, human; details: face of a volunteer
Source text: Immediately after illumination, the bacteria present on the administration zone are collected by immersion in a collection buffer allowing bacteria to detach and survive in suspension. Collection samples are inoculated, after suitable dilution, on agar plates, which are selective for p. acnes. CFU (Colony Forming Units) are counted after 5 days of growth on selective medium.

Pytirosporum ovale = assay: Photodestruction of the yeast P. ovale 24 hours after PDT; assay type: in vivo, human; details: 5 wt. % in Cold cream; 3 hours, then 5-15 J/cm^2 red light; 24 hours after light exposure
Protocol: 24 hours after the end of the light exposure, scales are collected using a patch-strip method (D-Squame. Cuderm Corp. Dallas. US) and P. ovale can be counted under fluorescence microscope using a fluorochrome which is selective for this type of yeast (Fungiqual A. Kandern. D E).

[2] = system: skin area affected with seborrheic dermatitis; assay: Cosmetic PDT treatment of seborrheic dermatitis; assay type: in vivo, human; details: 5% in Cold cream
sebaceous gland = assay: Microscopic fluorescence image of tissue sample; details: formulation comprising 20 wt. %
[3] = skin treatment: No (intact skin)
[4] = skin treatment: SC removed by dry shaving
[5] = fluorescence on intact skin relative to skin with SC removed

Protocol for psoriatic plaque: ALA-DGME 5% is prepared in Cold cream as in the previous example. 50 mg of 5% ALA-DGME in Cold cream are applied to the psoriatic plaque. 3 hours later, the zone which received ALA-DGME is exposed to 10-30 J/cm^2 of red light. The treatment is repeated 6 times with a 2 weeks interval.

Compound | Fluoresence epidermis (stratum corneum; [3]) | Fluoresence epidermis (stratum corneum; [4]) | Penetration through epidermis (%) (stratum corneum; [5]) | other results
NCC(=O)CCC(=O)O [ALA, 5-aminolevulinic acid, reference compound] | 31 arbitrary relative units | 52 arbitrary relative units |  | Penetration through epidermis (%) (stratum corneum; human): 59.6%; distribution of fluorescence on skin (hair follicles): fluorescence is non-specific and uniformly distributed over the entire skin area; allergenic potential [1]: has not demonstrated such an allergenic potential
CCOCCOCCOC(=O)CCC(=O)CN [ALA-DGME, diethylene-glycol monoethyl ether ester of ALA] | 20 arbitrary relative units | 57 arbitrary relative units | 35.1% | distribution of fluorescence on skin (hair follicles): fluorescence is discretely associated to specific small spots; adverse reaction on the skin (Propionobacterium acnes; 5% in Cold cream plus red light): No adverse reaction was observed; reduction in Propionobacerium acnes counts (CFU) (Propionobacterium acnes; 5% in Cold cream, 3 hours, then 5-15 J/cm^2 red light, immediately after illumination): suitable to kill microorganism present on the skin; also recorded: substantial reduction of bacterial counts; reduction in Pytirosporum ovale counts (Pytirosporum ovale): substantial reduction of yeast counts; side effects to the surrounding skin ([2]; 24 hours after PDT): no side effects to the surrounding skin; skin reaction after PDT ([2]; 24 hours after PDT, 5-15 J/cm^2 red light): slight redness; selectivity of fluorescence for affected skin ([2]; topically applied on skin with seborrheic dermatitis, 3 hours): accumulated specifically in the skin area affected with SD; also recorded: only affected skin area shows red fluorescence; fluorescence in tissue sample (microscopic image) (sebaceous gland): fluorescence in sebaceous gland; psoriasis plaque after several PDT treatments (psoriatic plaque; 5% in Cold cream, 10-30 J/cm^2 red light, repeated 6 times with 2 weeks interval): partial clearance; accumulation of photosensitizer in psoriasis lesions (red fluorescence) (psoriatic plaque; 5% in Cold cream, 3 hours): accumulated specifically in the psoriasis lesions; side effects to the surrounding skin (psoriatic plaque; after several PDT treatments, 5% in Cold cream): no side effects to the surrounding skin; selectivity of fluorescence for psoriasis plaque (psoriatic plaque; formulation comprising 20 wt. % (figure legend)): red fluorescence covering the psoriasis plaque solely
NCC(=O)CCC(=O)NC(Cc1ccccc1)C(=O)O (stereo not shown) [Compound 1, Phenylalanine-ALA-amide] |  |  |  | fluorescence at positions of hair follicles (hair follicles; 80 wt. % formulation, hair removed by wax-epilation, 3 hours after administration, 10 ms exposure): spots of high fluorescence
NCC(=O)CCC(=O)Oc1ccc(CC(N)C(=O)O)cc1 (stereo not shown) [Compound 2, Tyrosine-ALA-ester] | 0 arbitrary relative units | 114 arbitrary relative units |  | 
CC(C)CCCC(C)C1CCC2C3CC=C4CC(OC(=O)CCC(=O)CN)CCC4(C)C3CCC12C (stereo not shown) [Compound 6, ALA-Cholesteryl-ester] | 1 arbitrary relative units | 25 arbitrary relative units |  | increase of fluorescence upon removal of the stratum corneum (stratum corneum): 25 fold; Penetration through epidermis (%) (stratum corneum; human): 4%
NCC(=O)CCC(=O)O[C@H]1O[C@H](CO)[C@@H](O)[C@H](O)[C@H]1O [Compound 11, 1′-α-D-Glucose-ALA-ester] | 0 arbitrary relative units | 12 arbitrary relative units | 0% | 
NCC(=O)CCC(=O)OCC(O)C1OC(=O)C(O)=C1O (stereo not shown) [Compound 12, ALA-ascorbate-ester] | 4 arbitrary relative units | 20 arbitrary relative units |  | 
CCCCCCOC(=O)CCC(=O)CN [Hexyl-ALA-ester, reference compound] | 37 arbitrary relative units | 88 arbitrary relative units |  | Penetration through epidermis (%) (stratum corneum): 42%
ALA-Cholesterylhexyl-ester [Compound 5] | 7 arbitrary relative units | 94 arbitrary relative units | 7.44% | 
ALA-ethyl-ester-ALA [Compound 8] | 30 arbitrary relative units | 225 arbitrary relative units | 13.3% | increase of fluorescence upon removal of the stratum corneum (stratum corneum): 7.5 fold; Penetration through epidermis (%) (stratum corneum; fluorescence on intact skin relative to skin with SC removed, listed as compound 8): 13.3%
Phloroglucinol-tri-ALA-ester [Compound 7] | 30 arbitrary relative units | 187 arbitrary relative units | 16% | 
